Assay results from patent US20180311238A1, “Selective Agonist Of a6 Containing nAChRs” (Saniona A/S, priority 2017, published 2018).

Biological target: T1, nAChRs of the α4β2 subtype (Rattus norvegicus, UniProt P09483+P12390)
T1 construct: from tissue; host or cells: rat cerebral cortex membranes
Assay: In vitro inhibition of 3H-cytisine binding, rat cortex
Conditions: ligand 3H-cytisine
Procedure: The predominant subtype with high affinity for nicotine is comprised of α4 and β2 subunits. Here, the nicotine agonist ^3H-cytisine is used to selectively label nAChRs of the α4β2 subtype.
Preparations were performed at 0-4° C. Cerebral cortices from male Wistar rats (150-250 g) were homogenized for 20 sec in 15 ml Tris-HCl (50 mM, pH 7.4) containing 120 mM NaCl, 5 mM KCl, 1 mM MgCl2 and 2.5 mM CaCl2 using an Ultra-Turrax homogenizer. The homogenate was centrifuged at 27,000×g for 10 min. The supernatant was discarded and the pellet is re-suspended in fresh buffer and centrifuged a second time. The final pellet was re-suspended in fresh buffer (35 ml per g of original tissue) and used for binding assays.
Aliquots of 500 μl homogenate were added to 25 μl of test solution and 25 μl of ^3H-cytisine (1 nM, final concentration), mixed and incubated for 90 min at 0-4° C. Non-specific binding (5-10% of total binding) was determined using 100 μM (−)-nicotine. […]
Binding was terminated by rapid filtration onto Whatman GF/B glass fibre filters using a Brandel Cell Harvester, followed by seven washes with 2 ml ice-cold buffer. The amount of radioactivity on the filters was determined by conventional liquid scintillation counting using a Tri-Carb™ counter (PerkinElmer Life and Analytical Sciences).
Specific binding was calculated as total binding minus non-specific binding.

T1 sequence (P09483 31-630): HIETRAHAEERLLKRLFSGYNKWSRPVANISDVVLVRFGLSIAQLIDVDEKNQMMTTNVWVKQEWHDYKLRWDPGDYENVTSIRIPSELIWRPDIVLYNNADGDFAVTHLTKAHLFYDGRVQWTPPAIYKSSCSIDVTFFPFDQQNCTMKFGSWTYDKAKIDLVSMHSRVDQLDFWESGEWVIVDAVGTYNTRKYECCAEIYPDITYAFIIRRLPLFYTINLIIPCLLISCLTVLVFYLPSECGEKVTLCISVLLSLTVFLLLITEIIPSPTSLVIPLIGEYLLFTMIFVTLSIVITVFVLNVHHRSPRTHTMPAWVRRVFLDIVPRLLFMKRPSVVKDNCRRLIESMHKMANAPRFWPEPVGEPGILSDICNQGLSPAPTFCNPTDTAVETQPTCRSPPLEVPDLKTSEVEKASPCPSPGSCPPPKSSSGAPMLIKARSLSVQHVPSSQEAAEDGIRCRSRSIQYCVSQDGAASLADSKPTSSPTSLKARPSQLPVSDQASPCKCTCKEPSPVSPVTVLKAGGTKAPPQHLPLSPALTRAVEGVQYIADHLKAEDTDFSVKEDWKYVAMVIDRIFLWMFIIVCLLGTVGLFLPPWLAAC
T1 sequence (P12390 25-500): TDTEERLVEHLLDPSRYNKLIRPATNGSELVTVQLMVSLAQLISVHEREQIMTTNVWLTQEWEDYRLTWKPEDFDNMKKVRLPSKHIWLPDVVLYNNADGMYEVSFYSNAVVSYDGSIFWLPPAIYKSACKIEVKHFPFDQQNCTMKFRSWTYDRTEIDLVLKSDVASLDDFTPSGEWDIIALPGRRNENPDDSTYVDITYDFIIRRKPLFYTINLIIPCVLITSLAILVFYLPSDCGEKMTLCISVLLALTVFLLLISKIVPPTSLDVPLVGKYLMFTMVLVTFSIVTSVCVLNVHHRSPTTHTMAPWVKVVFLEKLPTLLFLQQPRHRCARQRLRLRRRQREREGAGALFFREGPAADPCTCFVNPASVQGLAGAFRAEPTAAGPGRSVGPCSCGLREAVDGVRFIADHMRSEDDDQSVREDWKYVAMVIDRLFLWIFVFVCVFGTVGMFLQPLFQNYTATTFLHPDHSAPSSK

CN1C2CCCC1CN(c1cccnc1)C2 [9-methyl-3-pyridin-3-yl-3,9-diaza-bicyclo[3.3.1]nonane]
Ki: 3.1 nM
